In patent US20220257595A1, “MACITENTAN FOR USE IN TREATING PORTOPULMONARY HYPERTENSION” (ACTELION PHARMACEUTICALS LTD, priority 2019, published 2022):
“Also recorded” adds a separate entry of the source.

Tested on: patients with PoPH
Experiment: PORTICO: right heart catheterization hemodynamics at rest (PVR, mRAP, mPAP, cardiac index, TPR, SVO2, PAWP/LVEDP)
Assay type: in vivo, human
Experimental: This study was designed as a randomized, double-blind (DB), placebo-controlled, prospective, multicenter, parallel group Phase 4 study assessing the efficacy and safety of macitentan in PoPH. The study design included an OL period following DB End of Treatment (EOT), the details of which are included below. The study design required approximately 84 adult patients with PoPH to be randomized (1:1) to receive either macitentan 10 mg, or matching placebo, once daily (o.d.) orally. Subject allocation to treatment groups was stratified by background PAH specific therapy receipt (yes/no). Stratification by region of enrollment was also performed as the number of enrolled patients per center was expected to be low, and variation in total patient numbers on a country-to-country level was expected. Based on an attrition rate of 10%, it was expected to have 76 evaluable patients at Week 12/End of Treatment (double-blind) (EOT-DB). Subjects were required to have a confirmed diagnosis of PoPH with a PVR of ≥4 Wood units (WU; ≥320 dyn·s·cm^−5) at enrollment but not have severe hepatic impairment (defined as Child-Pugh Class C or Model for End-Stage Liver Disease (MELD) score ≥19). Subjects were required to have 6-minute walk distance (6MWD) ≥50 m at enrollment but they could belong to any WHO FC. Patients were randomized at 36 sites in seven countries. The core study comprised the following periods:
The primary efficacy endpoint was: • Relative change from baseline to Week 12 in PVR, expressed as ratio of Week 12 to baseline PVR (Week 12 PVR divided by baseline PVR).
(i) Hemodynamic measurements—right heart catheterization: Invasive cardiac hemodynamic variables were measured according to the RHC guidelines at Baseline (Visit 1/Screening) and Week 12, or at permanent discontinuation of DB study treatment if prior to Week 12 (at the investigator's discretion). The thermodilution technique was used to measure cardiac output (CO). For each patient, a maximum of two RHC procedures were performed during the study. The following variables were measured: Heart rate (HR), PAWP or LVEDP (if PAWP is not available), mRAP, systolic/diastolic/mean pulmonary arterial pressure (PAP), CO, SVO2. PVR was calculated at Visit 1/Screening. The following hemodynamic variables were calculated for analysis purposes: PVR, TPR, cardiac index.
The primary efficacy endpoint is: • Relative change from baseline to Week 12 in PVR, expressed as ratio of Week 12 to baseline PVR (Week 12 PVR divided by baseline PVR). • Calculated PVR was used for the efficacy analyses.
The primary analysis was performed on the FAS and using calculated PVR. PVR was summarized by time point and treatment group using descriptive statistics. Ratio of Week 12 to baseline was summarized using geometric means and coefficients of variation (CVs). The ratio of Week 12 to baseline PVR was log-transformed (base e) and analyzed using ANCOVA with factors for treatment group (macitentan versus placebo), background PAH-specific therapy at baseline (Yes/No as per IXRS, randomization stratification factor), region (Europe/North America/Latin America as per IXRS, randomization stratification factor) and a covariate for baseline log-transformed PVR. The treatment group difference (on log scale) and its 95% confidence interval (2-sided) were estimated based on the model. The geometric mean ratio (macitentan versus placebo) and its 95% confidence interval (2-sided) were obtained by exponentiation. […] The log transformation for PVR is justified by the fact that ratios versus baseline follow a normal distribution more closely after a log transformation. In addition, mean absolute changes from baseline on log scale can be translated into (geometric) mean ratios by exponentiation.
A sensitivity analysis was performed applying main ANCOVA analysis without the stratification factors (background PAH-specific therapy at baseline and region). […]

[1] = 10 mg o.d. oral, DB period, FAS with imputation, n=43
[2] = 10 mg o.d., FAS with imputation, n=43
[3] = Week 12 vs baseline, macitentan group
[4] = change to Week 12, ANCOVA, FAS, listed as Macitentan
[5] = patients receiving macitentan, FAS no imputation

For CCCNS(=O)(=O)Nc1ncnc(OCCOc2ncc(Br)cn2)c1-c1ccc(Br)cc1 [macitentan, N-[5-(4-Bromophenyl)-6-[2-[(5-bromo-2-pyrimidinyl)oxy]ethoxy]-4-pyrimidinyl]-N′-propylsulfamide], the “PVR at Week 12, mean” value [1] was 350.3 dyn.sec/cm^5, the “PVR at Week 12, median” value [1] was 328.6 dyn.sec/cm^5 and the “Mean (±SD) decrease in PVR from baseline to Week 12” value (10 mg o.d., FAS) was 202.1 (±123.56) dyn·sec/cm^5. The “Change from baseline to Week 12 in PVR, mean” value [2] was −202.1 dyn.sec/cm^5, the “Change from baseline to Week 12 in PVR, median” value [2] was −179.9 dyn.sec/cm^5 and the “Ratio of Week 12 to baseline PVR, geometric mean (95% CLs)” value [2] was 0.63 (0.58, 0.67). The “Ratio of baseline PVR at Week 12, median” value [2] was 0.60, the “Ratio of Week 12 to baseline PVR, geometric mean (95% CLs)” value (10 mg o.d., FAS with imputation, n=43, listed as Macitentan) was 0.63 and the “LS mean difference Macitentan 10 mg-Placebo, log(ratio of baseline PVR at Week 12)” value (ANCOVA, FAS) was −0.43. For the same compound, the “LS mean of log(ratio of baseline PVR at Week 12)” value (ANCOVA, FAS, macitentan group) was −0.41, the “Model-adjusted geometric mean of ratio of baseline PVR at Week 12” value (ANCOVA, FAS, macitentan group) was 0.67 and the “SVO2 at Week 12, mean” value (FAS with imputation, n=41) was 70.3%. For the same compound, the “SVO2 change from baseline to Week 12, mean” value (FAS with imputation, n=41) was 1.1%, the “mRAP at Week 12, mean” value (FAS with imputation, n=42) was 9.0 mmHg and the “mRAP change from baseline to Week 12, mean” value (FAS with imputation, n=42) was 1.6 mmHg. For the same compound, the “Cardiac index at Week 12, mean” value (FAS with imputation, n=43) was 3.7 L/min/m^2, the “Cardiac index change from baseline to Week 12, mean” value (FAS with imputation, n=43) was 0.6 L/min/m^2 and the “TPR at Week 12, mean” value (FAS with imputation, n=43) was 489.4 dyn · sec/cm^5. The “TPR change from baseline to Week 12, mean” value (FAS with imputation, n=43) was −199.8 dyn · sec/cm^5, the “mPAP Change from baseline to Week 12, Mean” value (FAS with imputation, n=43) was −6.4 mmHg and the “mPAP at Week 12, mean” value (FAS with imputation, n=43) was 40.0 mmHg. The “Effect on PVR across demographic and baseline disease subgroups” value (FAS, subgroup analyses, Week 12) was “consistent with the overall treatment effect, with no indication of heterogeneity”, the “Geometric mean ratio of macitentan versus placebo (95% CLs), PVR, slope imputation” value (Week 12, ANCOVA, FAS N=85) was 0.65 (0.59, 0.72), and the “Model-adjusted geometric mean ratio of PVR (macitentan over placebo), primary analysis” value (Week 12, ANCOVA, FAS N=85) was 0.65 (0.59, 0.72), p < 0.0001. The “Difference in LS means macitentan-placebo, change from baseline in PVR (no log-transformation)” value (Week 12, ANCOVA, FAS N=85 (Table 10)) was −180.71 dyn.sec/cm^5, the “Model-adjusted geometric mean ratio of PVR (macitentan over placebo), primary analysis” value (Week 12, ANCOVA, FAS N=85, listed as Macitentan) was 0.65 and the “Treatment effect: geometric mean ratio of PVR ratio (macitentan vs placebo)” value (Week 12, FAS with imputation, descriptive (Table 8)) was 0.64. The “LS Mean difference (macitentan-placebo), ANCOVA (Absolute Change) of PVR” value (Week 12, N=85 (Table 12)) was −180.71 meters, the “Reduction in PVR vs placebo” value (Week 12, from adjusted geometric mean ratio) was 35% and the “Patients with an increase in PVR” value [3] was 1 patient. The “Patients with no change in PVR” value [3] was 1 patient, the “SVO2: difference in LS means macitentan-placebo” value (change to Week 12, ANCOVA, FAS) was “No clinically significant effect; also recorded: No clinically relevant effect” and the “mRAP: difference in LS means macitentan-placebo” value (change to Week 12, ANCOVA, FAS) was “No clinically significant effect; also recorded: No clinically relevant effect”. For the same compound, the “Cardiac index: difference in LS means macitentan-placebo” value [4] was 0.52 L/min/m^2, the “SVO2: difference in LS means macitentan-placebo” value [4] was 0.03% and the “TPR: difference in LS means macitentan-placebo” value [4] was −171.48 dyn · sec/cm^5. The “mPAP: difference in LS means macitentan-placebo” value [4] was −5.99 mmHg, the “mRAP: difference in LS means macitentan-placebo” value [4] was 1.67 mmHg and the “PAWP/LVEDP treatment difference based on change from baseline to Week 12” value (macitentan vs placebo) was 2.4 mmHg. For the same compound, the “Mean PAWP/LVEDP (SD) at Week 12” value [5] was 11.4 (4.2) mmHg and the “PAWP/LVEDP mean (SD) change from baseline at Week 12” value [5] was 2.1 (3.7) mmHg.
